Blank lines part the entries; values can stand above or below the compound they belong to.
Columns and labels:
[1] = target: T1, Sodium- and chloride-dependent glycine transporter 2 (Homo sapiens, UniProt Q9Y345); test: (§1) Inhibition of [3H]glycine uptake at GlyT2
T1 sequence (Q9Y345 whole entry): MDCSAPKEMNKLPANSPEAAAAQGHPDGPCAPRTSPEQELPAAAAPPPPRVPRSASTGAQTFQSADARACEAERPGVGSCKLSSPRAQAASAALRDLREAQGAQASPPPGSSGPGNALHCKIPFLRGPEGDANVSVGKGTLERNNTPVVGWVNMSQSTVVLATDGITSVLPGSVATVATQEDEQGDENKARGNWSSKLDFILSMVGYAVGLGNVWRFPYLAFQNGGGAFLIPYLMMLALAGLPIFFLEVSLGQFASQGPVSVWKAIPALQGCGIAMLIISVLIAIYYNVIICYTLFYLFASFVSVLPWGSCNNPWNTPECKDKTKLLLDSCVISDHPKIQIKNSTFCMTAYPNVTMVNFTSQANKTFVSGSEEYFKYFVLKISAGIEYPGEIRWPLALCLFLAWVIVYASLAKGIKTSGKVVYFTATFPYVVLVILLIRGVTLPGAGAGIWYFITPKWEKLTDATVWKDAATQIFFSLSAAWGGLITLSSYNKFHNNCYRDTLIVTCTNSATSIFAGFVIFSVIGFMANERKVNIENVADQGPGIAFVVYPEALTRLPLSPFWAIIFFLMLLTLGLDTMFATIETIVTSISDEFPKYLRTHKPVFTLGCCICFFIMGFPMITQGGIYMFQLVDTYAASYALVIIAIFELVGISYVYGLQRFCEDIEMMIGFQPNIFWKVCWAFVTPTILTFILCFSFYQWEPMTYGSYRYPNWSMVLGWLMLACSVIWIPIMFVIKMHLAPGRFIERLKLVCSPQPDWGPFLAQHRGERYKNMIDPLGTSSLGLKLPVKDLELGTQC

in vitro [2] = conditions: mouse, microsomes, CL
Description: Intrinsic clearance in mouse microsome

in vitro [3] = conditions: human, microsomes, CL
Description: Intrinsic clearance in human microsome

in vitro [4] = conditions: mouse, microsomes, Max Achievable Bioavailability
Description: Maximum achievable bioavailability in mouse microsome

in vitro [5] = conditions: human, microsomes, Max Achievable Bioavailability
Description: Maximum achievable bioavailability in human microsome

[6] = target: T2, Sodium- and chloride-dependent glycine transporter 1 (Homo sapiens, UniProt P48067); test: (§2) Inhibition of [3H]glycine uptake at GlyT1
T2 sequence (P48067 whole entry): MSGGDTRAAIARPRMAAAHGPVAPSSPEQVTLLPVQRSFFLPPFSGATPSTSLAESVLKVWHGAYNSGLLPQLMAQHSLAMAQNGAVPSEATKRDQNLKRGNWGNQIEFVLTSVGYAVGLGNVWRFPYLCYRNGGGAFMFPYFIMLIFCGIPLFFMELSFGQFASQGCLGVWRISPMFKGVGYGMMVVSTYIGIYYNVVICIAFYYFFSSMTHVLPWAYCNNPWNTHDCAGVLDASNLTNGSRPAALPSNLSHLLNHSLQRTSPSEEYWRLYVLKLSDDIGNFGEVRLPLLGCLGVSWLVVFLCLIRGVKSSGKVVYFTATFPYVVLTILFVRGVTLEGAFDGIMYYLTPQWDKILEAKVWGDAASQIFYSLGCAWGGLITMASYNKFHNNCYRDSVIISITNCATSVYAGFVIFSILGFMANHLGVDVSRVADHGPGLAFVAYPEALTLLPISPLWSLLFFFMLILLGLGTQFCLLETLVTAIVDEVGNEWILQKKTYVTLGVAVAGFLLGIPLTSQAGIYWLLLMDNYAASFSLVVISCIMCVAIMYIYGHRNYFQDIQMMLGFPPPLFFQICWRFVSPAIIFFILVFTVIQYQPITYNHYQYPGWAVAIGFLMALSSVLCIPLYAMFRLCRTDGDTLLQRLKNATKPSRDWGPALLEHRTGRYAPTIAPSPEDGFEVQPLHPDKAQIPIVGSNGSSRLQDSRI

[7] = Dissociation constant, pKa of the compound; type: physicochemical
[8] = target: Voltage-gated inwardly rectifying potassium channel KCNH2 (Homo sapiens, UniProt Q12809)
Description: Inhibition of hERG potassium channel expressed in CHO cells by whole cell patch clamp method

[9] = target: T3, Sodium- and chloride-dependent glycine transporter 1 (Homo sapiens) (UniProt P48067); test: as §2
T3 sequence (whole entry): T2 sequence (P48067 whole entry)

[10] = target: T4, Sodium- and chloride-dependent glycine transporter 2 (Homo sapiens) (UniProt Q9Y345); test: as §1
T4 sequence (whole entry): T1 sequence (Q9Y345 whole entry)

[11] = Oral bioavailability in mouse; type: ADME, organism-based; conditions: in vivo
[12] = Clearance in mouse; type: ADME, organism-based; conditions: in vivo
[13] = Half life in mouse; type: ADME, organism-based; conditions: in vivo
[14] = Volume of distribution in mouse; type: ADME, organism-based; conditions: in vivo, read-out: Vss
[15] = Ratio of drug level in brain against plasma in mouse; type: ADME, organism-based; conditions: read-out: BPR

Chain of Voltage-gated inwardly rectifying potassium channel KCNH2 (Q12809 whole entry): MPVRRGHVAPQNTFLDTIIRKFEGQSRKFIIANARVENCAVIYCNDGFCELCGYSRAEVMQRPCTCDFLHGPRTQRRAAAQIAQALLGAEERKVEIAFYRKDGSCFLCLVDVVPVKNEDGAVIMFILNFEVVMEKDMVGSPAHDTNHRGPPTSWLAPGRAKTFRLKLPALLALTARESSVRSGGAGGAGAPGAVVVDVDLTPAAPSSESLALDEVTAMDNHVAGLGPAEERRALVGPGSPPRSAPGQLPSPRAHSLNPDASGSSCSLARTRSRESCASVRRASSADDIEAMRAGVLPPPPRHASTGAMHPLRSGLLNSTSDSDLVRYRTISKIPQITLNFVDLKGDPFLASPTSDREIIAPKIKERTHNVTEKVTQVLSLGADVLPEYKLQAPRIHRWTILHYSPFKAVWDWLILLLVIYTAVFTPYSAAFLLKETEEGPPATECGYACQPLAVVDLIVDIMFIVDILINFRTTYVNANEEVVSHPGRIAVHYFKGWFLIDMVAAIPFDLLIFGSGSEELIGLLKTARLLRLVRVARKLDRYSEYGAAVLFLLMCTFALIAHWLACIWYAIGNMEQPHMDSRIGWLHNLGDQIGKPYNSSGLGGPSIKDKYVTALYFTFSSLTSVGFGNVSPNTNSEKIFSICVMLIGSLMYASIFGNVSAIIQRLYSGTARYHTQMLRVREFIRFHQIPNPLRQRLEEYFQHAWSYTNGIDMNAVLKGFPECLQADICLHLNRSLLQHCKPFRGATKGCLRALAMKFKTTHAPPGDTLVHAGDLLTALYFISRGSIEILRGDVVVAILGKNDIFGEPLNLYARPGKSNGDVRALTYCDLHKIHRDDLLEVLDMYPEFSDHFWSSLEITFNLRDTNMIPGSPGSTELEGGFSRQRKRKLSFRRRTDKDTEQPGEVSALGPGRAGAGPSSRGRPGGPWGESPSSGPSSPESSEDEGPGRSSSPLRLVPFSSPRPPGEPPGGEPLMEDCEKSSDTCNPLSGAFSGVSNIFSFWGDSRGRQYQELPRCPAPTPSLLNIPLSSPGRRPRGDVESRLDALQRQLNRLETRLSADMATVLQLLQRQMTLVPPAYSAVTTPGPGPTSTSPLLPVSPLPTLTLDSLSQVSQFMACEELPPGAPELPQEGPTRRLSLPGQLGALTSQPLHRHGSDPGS

Compound: O=C1NCN(c2ccccc2)C12CCN(C1(c3ccccc3)CCCCC1)CC2
EC50 [1]: > 30 µM | microsomal CLint (in vitro [2]): 470 µL/min/mg | microsomal CLint (in vitro [3]): 82 µL/min/mg | Fh (in vitro [4]): 6% | Fh (in vitro [5]): 16%

EC50 [6]: 1.42 µM | pKa [7]: 7.1
Compound: O=C1NCC(c2ccccc2)C12CCN(C1(c3ccccc3)CCCOC1)CC2 (stereo not given)
IC50 [8]: > 11 µM

pKa [7]: 7.71
Compound: O=C1NCC(c2ccccc2)C12CCN(C1(c3ccccc3)CCOCC1)CC2 (stereo not given)

Compound: O=C1NCC(c2ccc(F)cc2)C12CCN(C1(c3ccc(F)cc3)CCCCCC1)CC2 (stereo not given)
Activity [9]: 245 nM | Activity [10]: > 30 µM

Compound: O=C1NCC(c2ccc(F)cc2)C12CCN(C1(c3ccc(F)cc3)CCCCC1)CC2 (stereo in doubt)
EC50 [1]: > 30 µM | bioavailability [11]: 60% | clearance [12]: 35 mL/min/kg | half-life [13]: 2.8 h | Vd [14]: 7.6 L/kg | Kp [15]: 3 | pKa [7]: 8.75 | Fh (in vitro [4]): 98% | Fh (in vitro [5]): 84%

Reference: ChEMBL document CHEMBL1145308 (Bioorg Med Chem Lett, 2006)
